From patent publication US20100139154A1, “PROCESS FOR FERMENTIVE PREPARATION OF ALCOHOLS AND RECOVERY OF PRODUCT” (E.I. DU PONT DE NEMOURS AND COMPANY, priority 2008, published 2010)
Where “and” joins values, the source holds several entries; their conditions need not be identical. Equal entries are not always repeated.

Key:
[1] = test system: Lactobacillus fermentum (ATCC 14931); assay: Glucose Uptake Index (GUI) of Lactobacillus fermentum culture with 5% v/v ionic liquid; format: cell-based; conditions: MRS medium, 16 hours, 30° C., paired control GUI 99.8, 26.5 or 94.6
[2] = Extraction of ethanol from an aqueous solution by ionic liquid, HPLC; format: physicochemical; conditions: concentration in aqueous solution after overnight equilibration with 5 vol % ionic liquid; control 684 mM
Protocol: (§1) Ethanol and isobutanol concentration in the solution was measured using HPLC as described above following thorough mixing and overnight equilibration of the contents of the vial.

[3] = Extraction of isobutanol from an aqueous solution by ionic liquid, HPLC; format: physicochemical; conditions: concentration in aqueous solution after overnight equilibration with 5 vol % ionic liquid; control 416 mM
Protocol: as §1

[4] = test system: Lactobacillus zeae (ATCC 15820); assay: Glucose Uptake Index (GUI) of Lactobacillus zeae culture with 5% v/v ionic liquid
Protocol: This media was made per bottle instructions using sterilized water, and was then again filter sterilized before use. The test tubes were incubated at 30° C. at 175 rpm in an Inova Incubator (Karlsbad, Sweden). After 24 hours, the test tubes were removed and stored at 4° C.
A portion (50 μL) of each stock culture prepared as above was inoculated into separate 15 mL sterile polypropylene culture tubes containing fresh MRS medium (3 mL). These tubes were incubated for four hours at 30° C. at 175 rpm. After four hours, one of these culture tubes was inoculated with 150 μL (5% v/v) of each of the ionic liquids as listed in Table 1 below. […] Each tube that was inoculated with an ionic liquid was also paired with a tube that received no ionic liquid and was used as a control.
All culture tubes were then incubated again under the same conditions for another 16 hours. After 16 hours, the culture tubes were stored at −80° C. Analytical samples were taken from each culture tube by thawing the samples and spinning them at 28,000 rpm and 20° C. for ten minutes in a Sorvall Instruments RC3C (Newtown Conn.) centrifuge. One milliliter of supernatant was removed from each tube and was subjected to high performance liquid chromatography (HPLC) analysis using an Agilent (Palo Alto Calif.) HPLC 1100 with a BioRad Aminex 87-H using 0.008 N sulfuric acid with both diode array and refractive index detection, and an Agilent HPLC 1100 with a Shodex OH-pak column using 0.01 N sulfuric acid. Data analysis was performed using the Agilent Chemstation software and Microsoft Excel.
The glucose uptake index was calculated by taking the total glucose consumed in a fermentation sample, whether or not the sample contained an ionic liquid, and dividing it by the total initial glucose present in the broth at the start of fermentation.

| Compound | GUI of Sample (Glucose Utilization Index in the presence of 5% (v/v) of the ionic liquid phase) [1] | Ethanol [2] [mM] | Isobutanol [3] [mM] | GUI of Sample (Glucose Utilization Index in the presence of 5% (v/v) of the ionic liquid phase) [4] |
| --- | --- | --- | --- | --- |
| 1-butyl-3-methylimidazolium 1,1,2,3,3,3-hexafluoropropanesulfonate [[BMIM] [HFPS]] | 8.0 and 11.5 | – | – | – |
| 1-butyl-3-methylimidazolium 1,1,2-trifluoro-2-(perfluoroethoxy)ethanesulfonate [[BMIM] [TPES]] | 7.21 | – | – | – |
| 1-butyl-3-methylimidazolium 1,1,2-trifluoro-2-(trifluoromethoxy)ethanesulfonate [[BMIM] [TTES]] | 16.2 | – | – | – |
| 1-butyl-3-methylimidazolium 2-(1,2,2,2-tetrafluoroethoxy)-1,1,2,2-tetrafluoroethanesulfonate [[BMIM] [FS]] | 24.0 | – | – | – |
| 1-butyl-3-methylimidazolium bis(trifluoromethylsulfonyl)imide [[BMIM] [Tf2N]] | 26.8 | – | – | – |
| 1-butyl-3-methylpyrrolidinium bis(trifluoromethylsulfonyl)imide [[BMP] [Tf2N]] | 0.96 | 676 | 391 | 49.8 |
| 1-ethyl-3-methylimidazolium bis(pentafluoroethylsulfonyl)imide [[EMIM] [BEI]] | 25.5 | – | – | 36.0 |
| 1-ethyl-3-methylimidazolium bis(trifluoromethylsulfonyl)imide [[EMIM] [Tf2N]] | 54.5 | 670 | 389 | 51.2 |
| 1-hexyl-3-methylimidazolium bis(trifluoromethylsulfonyl)imide [[HMIM] [Tf2N]] | 19.5 | 678 | 388 | 66.2 |
| 3-methyl-1-propylpyridinium bis(trifluoromethylsulfonyl)imide [[PMPy] [Tf2N]] | 26.1 | – | – | 63.5 |
| CCCCn1cc[n+](C)c1.F[B-](F)(F)F [[BMIM] [BF4], 1-butyl-3-methylimidazolium tetrafluoroborate] | 9.74 | – | – | – |
| CCCCn1cc[n+](C)c1.F[P-](F)(F)(F)(F)F [[BMIM] [PF6], 1-butyl-3-methylimidazolium hexafluorophosphate] | 88.3 | – | – | – |
| CCCCCCn1cc[n+](C)c1.FC(F)(F)C(F)(F)[P-](F)(F)(F)(C(F)(F)C(F)(F)F)C(F)(F)C(F)(F)F [[HMIM] [FAP], 1-hexyl-3-methylimidazolium tris(pentafluoroethyl)trifluorophosphate] | 84.7 | 680 | 404 | – |
| tetradecyl(tri-n-hexyl)phosphonium 1,1,2-trifluoro-2-(perfluoroethoxy)ethanesulfonate [[6,6,6,14-P] [TPES]] | 92.8 | – | – | 62.8 |
